Where two headings read alike, the source gives them in different places.
What was measured:
Type in all cases: cell-based, Human
[1] = tested on: HT29 cells; test: Inhibitory effect of compounds on HT29 cell proliferation; details: read-out: IC50, inhibitory activity on HT29 cell proliferation
Experimental: (1) Cell plating: First, tumor cells HT29 were cultured in corresponding medium, then digested with trypsin, centrifuged, resuspended, and counted, and the cells were adjusted to an appropriate concentration for plating.
(§1) Co-incubation of the compound of the present disclosure and tumor cells: after the cells adhered to the wall, the medium was removed, and the diluted bioactive molecule (the compound of the present disclosure) was added to the wells of the above plate, and incubated for 72 h.
(§2) In vitro cell viability detection: After the incubation, 50 μL of Cell Counting-Lite™ 2.0 reagent (Vazyme/Novazyme) was added to each well, shaken and mixed well in the dark, reacted for 10 minutes, and then the detection was carried out with a microplate reader (manufacturer: BMG, Model: PHERAStar-FS) for reading. The background RLU was obtained by using cell-free medium (with Cell Counting-Lite™), and the vehicle RLU was obtained by using cell-containing medium (with Cell Counting-Lite™). Cell inhibition rate=1−(sample RLU−background RLU)/(solvent RLU−background RLU)×100%. According to the four-parameter model fitting curve, the half maximal inhibitory concentration (IC50) of the compound was calculated, and the detection results were shown in Table 2.

[2] = tested on: NCI-H358 cells; test: Inhibitory effect of compounds on NCI-H358 cell proliferation; details: Homo sapiens, NCI-H358, 72 h, read-out: IC50, inhibitory activity on NCI-H358 cell proliferation, NCI-H358 human non-small cell lung cancer cells, 72 h incubation, Cell Counting-Lite 2.0
Experimental: (1) Cell plating: First, tumor cells NCI-H358 were cultured in corresponding medium, then digested with trypsin, centrifuged, resuspended, and counted, and the cells were adjusted to an appropriate concentration for plating.
as §1
as §2, with “Table 10.” for “Table 2.”

[3] = tested on: Jeko-1 cells; test: Inhibitory effect of compounds on Jeko-1 cell proliferation; details: read-out: IC50, inhibitory activity on Jeko-1 cell proliferation
Experimental: (1) Cell plating: First, tumor cells Jeko-1 were cultured in corresponding medium, then digested with trypsin, centrifuged, resuspended, and counted, and the cells were adjusted to an appropriate concentration for plating.
as §1
as §2, with “Table 20.” for “Table 2.”

[4] = tested on: MDA-MB-231 cells; test: Inhibitory effect of compounds on MDA-MB-231 cell proliferation; details: read-out: IC50, inhibitory activity on MDA-MB-231 cell proliferation
Experimental: (1) Cell plating: First, tumor cells MDA-MB-231 were cultured in corresponding medium, then digested with trypsin, centrifuged, resuspended, and counted, and the cells were adjusted to an appropriate concentration for plating.
as §1
as §2, with “Table 18.” for “Table 2.”

[5] = tested on: NCI-N87 cells; test: Inhibitory effect of compounds on NCI-N87 cell proliferation
Experimental: (1) Cell plating: First, tumor cells NCI-N87 were cultured in corresponding medium, then digested with trypsin, centrifuged, resuspended, and counted, and the cells were adjusted to an appropriate concentration for plating.
as §1
as §2, with “Table 12.” for “Table 2.”

[6] = tested on: Hela cells; test: Inhibitory effect of compounds on Hela cell proliferation; details: Homo sapiens, HeLa, 72 h, read-out: IC50, inhibitory activity on Hela cell proliferation
Experimental: (1) Cell plating: First, tumor cells Hela were cultured in corresponding medium, then digested with trypsin, centrifuged, resuspended, and counted, and the cells were adjusted to an appropriate concentration for plating.
as §1
as §2, with “Table 14.” for “Table 2.”

[7] = tested on: A549 cells; test: Inhibitory effect of compounds on A549 cell proliferation; details: Homo sapiens, A549, 72 h, read-out: IC50, inhibitory activity on A549 cell proliferation
Experimental: (1) Cell plating: First, tumor cells A549 were cultured in the corresponding medium, then digested with trypsin, centrifuged and resuspended, and counted, and the cells were adjusted to an appropriate concentration for plating.
as §1
as §2, with “cell activity” for “cell viability”, “Table 4.” for “Table 2.”

Row | SMILES | IC50 ([1]; Homo sapiens, HT-29, 72 h) | IC50 ([4]; Homo sapiens, MDA-MB-231, 72 h) | other results
1 | CC[C@@]1(O)C(=O)OCc2c1cc1n(c2=O)Cc2c-1nc1cc3c(cc1c2CCNCCOC)OCO3 [Example 22 (4-15), (S)-7-Ethyl-7-hydroxy-14-(2-((2-methoxyethyl)amino)ethyl)-7H-[1,3]dioxolano[4,5-g]pyrano[3′,4′:6,7]indolizino[1,2-b]quinolin-8,11 (10H,13H)-dione] | 5.2 nM | 175 nM | IC50 [2]: 17.8 nM; IC50 ([3]; Homo sapiens, JeKo-1, 72 h): 0.11 nM
2 | CC[C@@]1(O)C(=O)OCc2c1cc1n(c2=O)Cc2c-1nc1cc(F)c(C)c3c1c2[C@@H](NC(=O)[C@@H](O)CN(C)C)CC3 (single isomer, unassigned) [Example 20 (1-10-B)] | 10.3 nM | 27.2 nM | 
3 | CC[C@@]1(O)C(=O)OCc2c1cc1n(c2=O)Cc2c-1nc1cc(F)c(C)c3c1c2[C@@H](NC(=O)[C@H](O)CN(C)C)CC3 (single isomer, unassigned) [Example 20 (1-10-A)] | 61.6 nM | 97.6 nM | 
4 | CC[C@@]1(O)C(=O)OCc2c1cc1n(c2=O)Cc2c-1nc1cc(F)c(C)c3c1c2[C@H](CN)CC3 (single isomer, unassigned) [Example 13 (5-7-B)] | 4.66 nM | 172 nM | IC50 ([3]; Homo sapiens, JeKo-1, 72 h): 0.18 nM; IC50 ([5]; Homo sapiens, NCI-N87, 72 h, read-out: IC50, inhibitory activity on NCI-N87 cell proliferation, NCI-N87 human gastric cancer cells, 72 h incubation, Cell Counting-Lite 2.0): 7.31 nM
5 | CC#C[C@H](O)C(=O)N[C@H]1CCc2c(C)c(F)cc3nc4c(c1c23)Cn1c-4cc2c(c1=O)COC(=O)[C@]2(O)CC [Example 1 (1-1-B), (S)—N-((1S,9S)-9-ethyl-5-fluoro-9-hydroxy-4-methyl-10,13-dioxo-2,3,9,10,13,15-hexahydro-1H,12H-benzo[de]pyrano[3′,4′:6,7]indolizino[1,2-b]quinolin-1-yl)-2-hydroxypent-3-yneamide] | 1.54 nM |  | IC50 [6]: 3.65 nM
6 | CC[C@@]1(O)C(=O)OCc2c1cc1n(c2=O)Cc2c-1nc1cc(Cl)c(C)c3c1c2[C@H](NC(=O)C1(O)CC1)CC3 [Example 7 (2-20-B), N-((1R,9S)-5-chloro-9-ethyl-9-hydroxy-4-methyl-10,13-dioxo-2,3,9,10,13,15-hexahydro-1H,12H-benzo[de]pyrano[3′,4′:6,7]indolizino[1,2-b]quinolin-1-yl)-1-hydroxycyclopropane-1-carboxamide] | 4.03 nM |  | IC50 [7]: 23.1 nM
7 | CC[C@@]1(O)C(=O)OCc2c1cc1n(c2=O)Cc2c-1nc1cc(F)c(Cl)c3c1c2[C@@H](NC(=O)CO)CC3 [Example 9 (3-4-A), N-((1S,9S)-4-Chloro-9-ethyl-5-fluoro-9-hydroxy-10,13-dioxo-2,3,9,10,13,15-hexahydro-1H, 12H-benzo[de]pyrano[3′,4:6,7]indolizino[1,2-b]quinolin-1-yl)-2-hydroxyacetamide] |  |  | IC50 ([1]; HT29 human colon cancer cells, 72 h incubation, Cell Counting-Lite 2.0): 5.55 nM; IC50 ([3]; Jeko-1 human mantle cell lymphoma cells, 72 h incubation, Cell Counting-Lite 2.0): 0.27 nM; IC50 ([4]; MDA-MB-231 human breast cancer cells, 72 h incubation, Cell Counting-Lite 2.0): 285 nM; IC50 ([5]; NCI-N87 human gastric cancer cells, 72 h incubation, Cell Counting-Lite 2.0, read-out: IC50, inhibitory activity on NCI-N87 cell proliferation): 4.38 nM
